Entries after “also recorded” stand apart in the source; their conditions may differ.
How the values were obtained:
[1] = system: SMAD3 phosphorylation; experiment: Murine bleomycin model: SMAD3 phosphorylation; type: in vivo, mouse; settings: bleomycin mice
Protocol: Mice (C57BL/6) were divided into healthy (n=15), vehicle-treated (n=15), and test article-treated (n=15 per dose) groups. Mice in the vehicle and test article-treated groups were administered 3 U/kg of bleomycin (Teva Pharmaceuticals; North Wales, PA) via oropharyngeal aspiration while under anesthesia on day 0. Healthy animals were administered water in a similar fashion. Starting on day 7, mice in the control group were administered PBS vehicle, 130 uL, by oral gavage, BID for 14 days. Also starting on day 7, mice in the test group were administered compound 5 in PBS by oral gavage, BID for 14 days, at relative dosages of 1x, 2.5x and 5x. […] From day 14 through day 21, 9 of the 15 mice were administered ^2H2O for labeling. All mice were sacrificed on day 21 and tissues were collected. Samples were prepared for analysis either directly from lung tissue, or by bronchoalveolar lavage, which washes out the bronchiolar and alveolar space with saline to produce a bronchoalveolar lavage fluid (BALF) in which 80-90% of cells are alveolar macrophages.
FIG. 4C is a graph showing that compared to the healthy mice, lung tissue in the vehicle-treated mice experienced a substantial increase in SMAD3 phosphorylation, which is a measure of TGF-β signaling-related kinase activity. […]

[2] = system: normal human bronchial epithelial cells; experiment: LAP adhesion assay (xCELLigence cell index), bronchial epithelial cells; type: cell-based; settings: normal bronchial epithelial cells (express αvβ6)
Text: Two latency associated peptide (LAP) adhesion binding assays were devised using primary human lung cells, including normal (healthy) human bronchial epithelial cells and human lung fibroblasts (healthy and IPF).
Human bronchial epithelial cells are known to express αvβ6 integrin in culture.

[3] = system: SMAD3 phosphorylation; experiment: pSMAD3/SMAD3 in lung tissue and BALF of healthy mice; type: in vivo, mouse; settings: 4 days of treatment, dose dependent
[4] = system: pSmad2/Smad2; experiment: Alveolar pSmad2/Smad2 in BAL, prior study (80 mg and 160 mg QD); type: in vivo; settings: p<0.0001
Text: FIG. 12 through FIG. 36 illustrate various results from the clinical trial. […] BAL - bronchoalveolar lavage; pSmad2/Smad2 - ratio of phosphorylated Smad2 to total Smad2; QD - once daily.

[5] = system: patients with idiopathic pulmonary fibrosis (IPF); experiment: Phase 2a trial in IPF: safety and tolerability
Text: Approximately 80% of the enrolled patients were on standard of care and were equally distributed between nintedanib and pirfenidone.

[6] = Phase 2a trial in IPF: pharmacokinetics; type: in vivo, human; settings: IPF participants
Text: Based on sparse sampling, overall Compound 5 pharmacokinetics and % unbound in IPF were consistent with that of previous studies. […] Overall % unbound was ~0.3 to 0.5%. Full PK curve will be predicted using population PK model to project AUC0_24 and Cmax.

[7] = system: lung Col1a1 expression; experiment: Precision cut lung slices of mice under chronic bleomycin exposure (single vs dual integrin inhibition); type: cell-based, mouse; settings: slices cultured 7 days
Protocol: Mice (C57BL/6) were administered 3 U/kg of bleomycin (Teva Pharmaceuticals; North Wales, PA) on Day 0 and 1 U/kg of bleomycin on days 14, 28, 42 and 56 via oropharyngeal aspiration while under anesthesia. At day 70, 14 days after the final bleomycin insult, precision cut lung slices were obtained. Following euthanization, 2% low gelling temp agarose was injected into the mouse lungs via the trachea. […] The lobes were then subjected to precision slicing to obtain samples for culture using a microtome (Compresstome VF-300-0Z, Precisionary; Greenville, NC). Individual slices were distributed in a multiwell culture plate and cultured for 7 days under control (DMSO) and test compound conditions. […]
During the culture period, slices in the control group were treated with DMSO and slices in the test group were treated with a DMSO solution of one of: the selective antibody αvβ6 inhibitor 3G9; the αvβ1-selective small molecule inhibitor; a combination of the selective antibody αvβ6 inhibitor 3G9 and the αvβ1-selective small molecule inhibitor; compound 5; and the small molecule ALK5 inhibitor. The selective αvβ1 and αvβ6 integrin inhibitors were analyzed at ≥ their respective IC90 concentrations for inhibition of TGF-beta activation. […] The small molecule ALK5 inhibitor was analyzed at 10x its reported IC50 value.

[8] = SAD and MAD first-in-human studies, plasma LC-MS/MS; type: in vivo; settings: healthy subjects
Protocol: Healthy human subjects (N=85) were selected for single ascending dose (SAD) and multiple ascending dose (MAD) first-in-human studies. A solution for oral administration was prepared, containing 10 mg/mL of compound 5 in a 50:50 mixture of ORA-SWEET® SF (PERRIGO®, Allegan, Michigan) and sterile water for irrigation. Sufficient solution was administered orally to the subjects to provide between 15 mg/dose and 75 mg/dose of compound 5 in the SAD study and between 10 mg/dose and 40 mg/dose of compound 5 in the MAD study. Concentrations of compound 5 were measured in the subjects by obtaining a sample of plasma from each subject at desired intervals, and subjecting the plasma to liquid chromatography-mass spectrometry-mass spectrometry (LC-MS/MS), with quantification using a calibration curve determined from a range of solutions at standardized concentrations. The lower limit of quantitation (LLOQ) of the assay was 1 ng/mL and the calibration curve range was 1 to 500 ng/mL.

[9] = system: Type I Collagen gene Col1a1 expression; experiment: Precision cut lung slices of mice under acute bleomycin exposure; type: cell-based, mouse; settings: slices cultured 3 days; integrin inhibitors at IC50, pan-αv and ALK5 inhibitors at 10x IC50

Compound: COCCN(CCCCc1ccc2c(n1)NCCC2)CC[C@H](Nc1ncnc2ccccc12)C(=O)O [Compound 5, (S)-4-((2-methoxyethyl)(4-(5,6,7,8-tetrahydro-1,8-naphthyridin-2-yl)butyl)amino)-2-(quinazolin-4-ylamino)butanoic acid]
- pSMAD3 levels in the lung, % of the untreated levels [1]: approximately 50%
- SMAD3 phosphorylation in lung tissue vs vehicle ([1]; 1x, 2.5x, 5x dose PO BID 14 days from day 7): substantial, statistically significant dose-dependent reductions
- inhibition of cell adhesion to LAP [2]: substantially inhibited
- SMAD3 phosphorylation (pSMAD3/SMAD3) in cells isolated from BALF, % of the untreated levels [3]: approximately 50%
- SMAD3 phosphorylation (pSMAD3/SMAD3) in lung tissue, % of the untreated levels [3]: approximately 50%
- percent change of alveolar pSmad2/Smad2 from baseline at 24 hours vs placebo [4]: statistically significant
- discontinuations due to adverse events ([5]; 12 weeks): no discontinuations due to adverse events
- severity of most treatment emergent adverse events (TEAE) ([5]; 12 weeks): mild or moderate
- treatment related deaths or drug related serious adverse events (SAE) ([5]; 12 weeks): No treatment related deaths or drug related serious adverse events; also recorded: No treatment related SAEs or deaths
- patients completing 12 weeks of treatment (65 of 67) ([5]; 40, 80, 160 mg once daily): 97%
- tolerability ([5]; 40, 80, 160 mg once daily, 12 weeks): safe and well tolerated
- serious adverse events ([5]; Compound 5 alone): did not result in serious adverse events
- dose proportionality of plasma concentrations ([6]; 40, 80, 160 mg once daily): generally dose proportional increases; also recorded: increased approximately proportionally with dose
- fraction unbound ([6]; human, in vivo): 0.003 to 0.005
- lung Col1a1 expression vs DMSO control [7]: decreased lung Col1a1 expression substantially
- oral bioavailability and pharmacokinetics [8]: good oral bioavailability and pharmacokinetics
- Type I Collagen gene Col1a1 expression vs DMSO control [9]: decreased Type I Collagen gene Col1a1 expression substantially
